In US20260035668A1, “ORGANOID CULTURE COMPOSITION FOR INDUCING RESERVE STEM CELLS AND CULTURE METHOD USING SAME” (KOREA UNIVERSITY RESEARCH AND BUSINESS FOUNDATION, priority 2022, published 2026):
“Also recorded” adds a separate entry of the source.

Experiments:
Format in all cases: cell-based, C57Bl/6 mice
[1] = test system: small intestine-derived organoids; assay: Immunofluorescence of reserve stem cell marker TERT in SAG-treated organoids; conditions: 1 μM SAG after 3 μM CHIR99021 + 1 mM valproic acid; over time after incubation; FIG. 1
Method: To prepare small intestine-derived organoids, small intestine tissue was isolated from 4 to 8 week-old C57Bl/6 mice and perfused with PBS. The tissue was cut into pieces of 2 to 4 mm in size, placed in PBS, and washed clearly about 10 times. Then, the tissue was placed in PBS containing 200 mM EDTA, and incubated at 4° C. for 1 hour with shaking. Thereafter, the cells detached from the tissue were passed through a 70 um cell strainer, and centrifuged at 200 g. Organoids were prepared by mixing Matrigel in a 1:1 volume ratio with a culture medium containing settled small intestinal crypts and then performing three-dimensional culture.
The medium was prepared by adding a 10 mM HEPES buffer, 1X glutamax, 1 mM N-acetylcysteine, 1 volume of N2, 2 volumes of B-27, 20 volumes of RSPO (R-spodin), 10 volumes of noggin per 100 volumes of total medium, and 50 ng/ml of EGF to advanced DMEM F/12 medium (Gibco™, Cat. No 12634010) as a basic medium for small intestine organoids.
Subsequently, 10 μM Y-27632 was added to the medium, and the organoids prepared in Example 1-1 were inoculated and cultured for 3 days. […]

[2] = test system: small intestine-derived organoids; assay: Radiation resistance: formation of small intestinal crypts after X-ray irradiation; conditions: FIG. 2
Method: In order to confirm the radiation resistance of reserve stem cell-derived organoids prepared in Example 1, the formation of small intestinal crypts and the expression of a cell proliferation marker Ki-67 were confirmed after radiation expose. Specifically, 3 μM CHIR99021 and 1 mM Valproic acid were added to advanced DMEM F/12 medium supplemented with HEPES, glutamax, N-acetylcysteine, N2, B-27, R-spodin, noggin, and EGF. Thereafter, the organoids prepared in Example 1-1 were inoculated and cultured for 6 days, and then cultured for 3 days each under the conditions shown in the table below. [table] Then, the organoids cultured under each culture condition were irradiated once with 6 Gy of X-ray using a radiation irradiator (rs-320), and the formation of small intestinal crypts was confirmed after 72 hours.

[3] = test system: small intestine-derived organoids; assay: Expression of cell proliferation marker Ki-67 by immunofluorescence; conditions: 1 μM SAG culture medium; 0, 24 and 48 hours after completion of culture; vs control group; FIG. 3
Method: (§1) Specifically, the organoids were fixed with 4% PFA, and 0.1% Triton X-100 in PBS was used to increase a permeability of the organoids. Subsequently, 3% BSA and 0.1% Triton X-100 were placed in a solution diluted in PBS for 1 hour to block a membrane of the organoids, and incubated with primary antibodies (anti-hTERT (ab32020, abcam), anti-Ki67 (ab16667, abcam), anti-Green Fluorescent Protein (GFP-1020, aveslabs), anti-Dclk1 (ab31704, abcam), anti-UEA 1 (RL-1062-2, Vector Laboratories)) at 4° C. for 1 day. After washing with PBS three times for 10 minutes at room temperature, incubation was performed with fluorescent secondary antibodies corresponding to each primary antibody for 2 hours. After washing gain with PBS three times for 10 minutes at room temperature, the organoid nuclei were stained with 4′, 6-diamidino-2-phenylindole, dihydrochloride (DAPI) for 5 minutes at room temperature. In order to confirm the radiation resistance of reserve stem cell-derived organoids prepared in Example 1, the formation of small intestinal crypts and the expression of a cell proliferation marker Ki-67 were confirmed after radiation expose. Specifically, 3 μM CHIR99021 and 1 mM Valproic acid were added to advanced DMEM F/12 medium supplemented with HEPES, glutamax, N-acetylcysteine, N2, B-27, R-spodin, noggin, and EGF. […]

[4] = test system: small intestinal organoids; assay: Differentiation potential: Dclk1 (tuft cells) and UEA-1 (goblet cells) immunofluorescence; conditions: culture medium comprising SAG vs control group not comprising SAG; FIG. 4
Method: Subsequently, 10 μM Y-27632 was added to the medium, and the organoids prepared in Example 1-1 were inoculated and cultured for 3 days. Then, 3 μM CHIR99021 (Sigma-Aldrich, Cat. No SML1046-5 MG) and 1 mM valproic acid (Sigma-Aldrich, Cat. No P4543-10G) were added and incubated for 4 days at 37° C. in a 5% CO2 incubator, followed by treatment with 1 μM SAG (Abcam, Cat. No ab142160) and incubation to culture the reserve stem cell-induced organoids.
as §1, with “temperature.” for “temperature. In order to confirm the radiation resistance of reserve stem cell-derived organoids prepared in Example 1, the formation of small intestinal crypts and the expression of a cell proliferation marker Ki-67 were confirmed after radiation expose. Specifically, 3 μM CHIR99021 and 1 mM Valproic acid were added to advanced DMEM F/12 medium supplemented with HEPES, glutamax, N-acetylcysteine, N2, B-27, R-spodin, noggin, and EGF.”

SMILES: CNC1CCC(N(Cc2cccc(-c3ccncc3)c2)C(=O)c2sc3ccccc3c2Cl)CC1 (stereo not drawn) [SAG, smoothened receptor agonist (SAG)]
- activity of TERT (reserve stem cell marker) [1]: significantly increased over time
- formation of small intestinal crypts ([2]; 1 μM SAG + 3 μM CHIR99021 + 1 mM valproic acid, 3 days, 6 Gy X-ray once, after 72 hours, vs control groups 1 and 2): significantly better formation of small intestinal crypts compared to the other control groups
- radiation resistance ([2]; 1 μM SAG, 6 Gy X-ray, vs control groups): had resistance to radiation; also recorded: significantly higher radiation resistance than the other control groups
- expression of cell proliferation marker Ki-67 [3]: expressed at a significantly higher level than a control group at each time point
- Dclk1 (tuft cells) marker [4]: significantly increased compared to the control group
- UEA-1 (goblet cells) marker [4]: significantly increased compared to the control group
